From patent US10955352B2, “Method for assessing a state of a living cell” (Agency for Science, Technology and Research, priority 2016, dated 2021)

Tested on: HeLa cells
Assay: SERS detection and quantification of sialic acid on single living HeLa cells with DBA tag (HC-PCF)
Assay type: cell-based
Protocol: HeLa cells were cultured in Dulbecco's modified eagle medium (DMEM) with 1% penicillin streptomycin (Gibco) and 10% fetal bovine serum (Gibco) in the dark with 5% CO2 and 37° C. until they were confluent. The cells were then harvested by adding 1×EDTA trypsin of appropriate volume for 4 min, followed by addition of DMEM of double that volume to neutralize the trypsin. The harvested cells were centrifuged at 1,500 rpm for 3 mins. The supernatant was removed and the cells were suspended with DMEM to achieve a cell concentration of 5000 cells/ml. Two milliliter of cell suspension was seeded per well in a six-well plate and allowed to grow for 48 hours.
After incubation, DMEM was removed from each well and the adhered cells were rinsed lightly with 1×PBS which was subsequently removed. Four wells were used in our experiment. In order to reduce the probability of DBA binding onto sites of sialic acid on the surface of the cell membrane, thus mimicking a cell with lowered sialic acid level, 10 mM of phenyl-boronic acid (PBA) (Sigma Aldrich) dissolved in DMEM and 1% DMSO (Merck Millipore) were added to one well (Well A) and left to incubate for 24 hours. […]
Post-incubation washing was performed for all the wells and 10 mM of DBA (Sigma Aldrich) dissolved in DMEM and 1% DMSO was added into wells A, B and C, with incubation time of 4 hours. […] Supernatant were removed after centrifugation and the cells are ready for SERS sample preparation. […]
SERS spectra were recorded using a Raman microscope system (Renishaw InVia) with a 633 nm excitation laser and equipped with a grating (spectral resolution of about 1.8 cm^−1). […]
In order to calculate the amount of sialic acid on cell for Sialic acid and (+)Sialic acid samples, intensity of the 2,000 cm^−1 peak was obtained from the SERS measurement (FIG. 10A). […] The number of sialic acid molecules may be quantified by estimating the amount of DBA molecules from the trend line as the binding between DBA molecule to the sialic acid molecule is one by one. […]

In the case of `OB(O)c1ccccc1` [PBA, phenyl-boronic acid], the “2,000 cm^-1 peak in Raman spectrum (DBA binding to sialic acid) after pre-treatment” value (HeLa cells, 10 mM PBA 24 hours, then 10 mM DBA 4 hours) is reported as “negligible presence of that peak”.

With `C[C@]12C=CC(=O)C=C1CC[C@@H]1[C@@H]2[C@@H](O)C[C@@]2(C)[C@H]1CC[C@]2(O)C(=O)CO` [prednisolone] the “calculated sialic acid amount on a single HeLa cell” value (5 μM prednisolone 72 hours, then 10 mM DBA 4 hours, estimated from DBA calibration curve of 2,000 cm^-1 peak) was 6.782 fmol and the “intensity at 2,000 cm^-1 (DBA alkyne peak, sialic acid expression) versus positive control” value (HeLa cells, 5 μM prednisolone 72 hours, then DBA) was “higher than that of the positive control”.
